Experimental data published in patent US9499729B2, “Compositions and methods containing fluorine substituted olefins” (HONEYWELL INTERNATIONAL INC., priority 2006, dated 2016).

How the values were obtained:
[1] = Toxicity as stated by applicants (no method given)
[2] = Flammability / flammability limit (ASTM E-681); assay type: physicochemical
Method: Flammability is another important property for many applications. That is, it is considered either important or essential in many applications, including particularly in heat transfer and blowing agent applications, to use compositions which are of low flammability or are non-flammable. Thus, it is frequently beneficial to use in such compositions compounds which are nonflammable. As used herein, the term “nonflammable” refers to compounds or compositions which are determined to be nonflammable as determined in accordance with ASTM standard E-681, dated 2002, which is incorporated herein by reference. Unfortunately, many HFC's which might otherwise be desirable for used in refrigerant or foam blowing agent compositions are not nonflammable. For example, the fluoroalkane difluoroethane (HFC-152a) and the fluoroalkene 1,1,1-trifluorpropene (HFO-1243zf) are each flammable and therefore not viable for use in many applications.

[3] = Miscibility with refrigeration lubricants, sealed glass tubes, visual observation of liquid phases; assay type: physicochemical
Method: The miscibility of HFO-1225ye and HFO-1234ze with various refrigeration lubricants is tested. […] For each refrigerant/oil combination, three compositions are tested, namely 5, 20 and 50 weight percent of lubricant, with the balance of each being the compound of the present invention being tested
The lubricant compositions are placed in heavy-walled glass tubes. The tubes are evacuated, the refrigerant compound in accordance with the present invention is added, and the tubes are then sealed. The tubes are then put into an air bath environmental chamber, the temperature of which is varied from about −50° C. to 70° C. At roughly 10° C. intervals, visual observations of the tube contents are made for the existence of one or more liquid phases.

[4] = Compatibility/stability of refrigerant with lubricating oil in contact with aluminum, copper and steel coupons, sealed tube, one week, visual observation; assay type: physicochemical; conditions: one week at 350° C., liquid contents turn black
Method: The compatibility of the refrigerant compounds and compositions of the present invention with PAG lubricating oils while in contact with metals used in refrigeration and air conditioning systems is tested at 350° C., representing conditions much more severe than are found in many refrigeration and air conditioning applications.
Aluminum, copper and steel coupons are added to heavy walled glass tubes. Two grams of oil are added to the tubes. The tubes are then evacuated and one gram of refrigerant is added. The tubes are put into an oven at 350° F. for one week and visual observations are made. At the end of the exposure period, the tubes are removed.
This procedure was done for the following combinations of oil and the compound of the present invention: • a) HFC-1234ze and GM Goodwrench PAG oil • b) HFC1243 zf and GM Goodwrench oil PAG oil • c) HFC-1234ze and MOPAR-56 PAG oil • d) HFC-1243 zf and MOPAR-56 PAG oil • e) HFC-1225 ye and MOPAR-56 PAG oil.
Aluminum, copper and steel coupons are added to a heavy walled glass tube with mineral oil and CFC-12 and heated for one week at 350° C., as in Example 3. At the end of the exposure period, the tube is removed and visual observations are made.

[5] = Solubility of Jasmone in the fluoroolefin, sealed glass tube, frozen and thawed; assay type: physicochemical
Method: The compositions of the present invention also provide advantage when used as part of, and in particular as a carrier for, flavor formulations and fragrance formulations. […] 1.73 grams of R-1234ze were added to the glass tube. The tube was then frozen and sealed. […] The solution contained 20 wt. % Jasome and 80 wt. % R-1234ze, thus establishing favorable use a carrier for flavor formulations and fragrances. It also establishes its potential as an extractant of biologically active compounds (such as Biomass) and fragrances, including from plant matter. In certain embodiments, it may be preferred to use the present composition for in extraction applications with the present fluid in its supercritical state. This an other applications of involving use of the present compositions in the supercritical or near supercritical state are described hereinafter.
Approximately 0.39 grams of Jasmone were put into a heavy walled glass tube and approximately 1.73 grams of transHFC-1233zd were added to the glass tube. The tube was then frozen and sealed. […] The solution contained about 20 wt. % Jasome and about 80 wt. % transHFCO-1233zd.
Approximately 0.39 grams of Jasmone are put into a heavy walled glass tube and approximately 1.73 grams of cisHFC-1233zd are added to the glass tube. The tube is then frozen and sealed. […] The solution contains about 20 wt. % Jasmone and about 80 wt. % cisHFCO-1233zd.

[6] = Dissolution of silicone lubricant in the solvent; assay type: physicochemical; conditions: silicone oil added to a concentration of about 10 weight percent
Method: A compound of Formula II, namely, transHFCO-1233zd was transferred to a glass container. A silicon lubricant, particularly a high-viscosity (12,500 cP) silicone oil, was added to the transHFCO-1233zd solvent to a concentration of about 10 weight percent.
A compound of Formula II, namely, cisHFCO-1233zd is transferred to a glass container. A silicon lubricant, particularly a high-viscosity (12,500 cP) silicone oil is added to the cisHFCO-1233zd solvent to a concentration of about 10 weight percent.
(§1) A combination of transHFCO-1233zd and trans-1,2-dichloroethylene are prepared in transHFCO-1233zd:trans-1,2-dichloroethylene weight ratios of 25:75 and 50:50. Each combination is then added to a glass container. A silicon lubricant, particularly a high-viscosity (12,500 cP) silicone oil is added to each solvent to a concentration of about 10 weight percent.
as §1, with “cisHFCO-1233zd” for “transHFCO-1233zd”, “cisHFCO-1233zd:trans-1,2-dichloroethylene” for “transHFCO-1233zd:trans-1,2-dichloroethylene”

[7] = Dissolution of synthetic PAG lubricant in the solvent; assay type: physicochemical; conditions: PAG lubricant ND-8; combinations in approximate weight ratios: /methanol 98:2, /pentane 96:4, /methanol/pentane 92:2:6
Method: A synthetic lubricant, specifically polyalkyleneglycol (PAG) lubricant, and more specifically a PAG consisting essentially of 2 or more oxypropylene groups and having a viscosity of from about 10 to about 200 centistokes at about 37° C. (sold under the trade designation ND-8 by Idemitsu Kosan) are added to a vial containing transHFCO-1233zd. […] The properties of the synthetic lubricant ND-8 are identified below in Table 11 below.
A synthetic lubricant, specifically polyalkyleneglycol (PAG) lubricant, and more specifically a PAG consisting essentially of 2 or more oxypropylene groups and having a viscosity of from about 10 to about 200 centistokes at about 37° C. (sold under the trade designation ND-8 by Idemitsu Kosan) are added to a vial containing cisHFCO-1233zd.
The PAG lubricant described in Example 45 above is added to vials containing, respectively, transHFCO-1233zd/methanol in an approximate 98:2 weight ratio, transHFCO-1233zd/pentane in an approximate 96:4 weight ration and transHFCO-1233zd/methanol/pentane in an approximate 92:2:6 weight ratio.
The PAG lubricant described in Example 45 above is added to vials containing, respectively, cisHFCO-1233zd/methanol in an approximate 98:2 weight ratio, cisHFCO-1233zd/pentane in an approximate 96:4 weight ration and cisHFCO-1233zd/methanol/pentane in an approximate 92:2:6 weight ratio.

[8] = Solubility of Artemisinin in the extractant, solvent added to weighed sample until dissolved; assay type: physicochemical
Description: A medicament, particularly a plant-derived Artemisinin which is an anti-malarial drug, is extracted from the Artemisia annua plant. A sample of Artemisinin was weighed into a vial.

FC(F)(F)C=CCl [HCFO-1233zd, 1,1,1-trifluo-3,chloro-propene]
toxicity [1]: relatively low toxicity | flammability [2]: relatively low flammability

FC=C(F)C(F)(F)F [HFO-1225ye, 1,1,1,2,3 pentafluoropropene]
degree of toxicity in comparison to CF3CH═CF2 (HFO-1225zc) ([1]; pentafluoropropene with a hydrogen substituent on the terminal unsaturated carbon): relatively low degree of toxicity | miscibility with polyalkylene glycol ([3]; 50 weight percent concentration of the PAG in refrigerant, at 60°): miscible | miscibility with polyalkylene glycol ([3]; at 70° C., from 5 to 50 weight percent lubricant in refrigerant): miscible | miscibility with polyalkylene glycol ([3]; from −20 to 50° C.): partially miscible | miscibility with polyalkylene glycol ([3]; temperature range of −50° C. to −30° C.): immiscible

FC(F)(Cl)Cl [CFC-12, Dichlorodifluoromethane]
visual observation of tube contents (stability with mineral oil and metals) [4]: severe decomposition

CC/C=C\CC1=C(C)CCC1=O [Jasmone]
liquid phases of mixture with R-1234ze upon thawing ([5]; 0.39 grams Jasmone and 1.73 grams R-1234ze: 20 wt. % Jasmone, 80 wt. % R-1234ze): one liquid phase | solubility in cisHFCO-1233zd (soluble up to) ([5]; solvent cisHFCO-1233zd, one liquid phase): about 20 weight percent | solubility in transHFCO-1233zd (soluble up to) ([5]; solvent transHFCO-1233zd, one liquid phase): about 20 weight percent

FC(F)(F)/C=C\Cl [transHFCO-1233zd, 1,1,1-trifluo,3-chlororopropene]
solution formed with silicone oil [6]: homogeneous, single-phase solution | concentration of PAG at which a homogeneous, single-phase solution is formed [7]: greater than 10 % by weight

FC=CC(F)(F)F [HFO-1234ze, 1,1,1,3-tetrafluoropropene]
toxicity [1]: relatively low toxicity | flammability [2]: relatively low flammability

C[C@@H]1CC[C@H]2[C@@H](C)C(=O)O[C@@H]3O[C@@]4(C)CC[C@@H]1[C@]32OO4 [Artemisinin]
solubility in cisHFCO-1233zd (soluble up to) ([8]; solvent cisHFCO-1233zd): approximately 3 weight percent | solubility in transHFCO-1233zd (soluble up to) ([8]; solvent transHFCO-1233zd): approximately 3 weight percent
